{"source": "PubChem BioAssay (NCI)", "assay_in_all_cases": "NCI tumour cell line growth inhibition, 48 h", "key": {"PC-3 prostate": {"system": "PC-3 prostate"}, "HCT-15 colon": {"system": "HCT-15 colon"}, "SW-620 colon": {"system": "SW-620 colon"}, "DU-145 prostate": {"system": "DU-145 prostate"}, "HOP-62 NSCLC": {"system": "HOP-62 NSCLC"}, "TK-10 renal": {"system": "TK-10 renal"}, "UO-31 renal": {"system": "UO-31 renal"}, "OVCAR-5 ovarian": {"system": "OVCAR-5 ovarian"}, "IGROV1 ovarian": {"system": "IGROV1 ovarian"}, "RXF 393 renal": {"system": "RXF 393 renal"}, "CAKI-1 renal": {"system": "CAKI-1 renal"}, "ACHN renal": {"system": "ACHN renal"}, "SR leukemia": {"system": "SR leukemia"}, "SK-OV-3 ovarian": {"system": "SK-OV-3 ovarian"}, "HS 578T breast": {"system": "HS 578T breast"}, "786-0 renal": {"system": "786-0 renal"}, "HL-60(TB) leukemia": {"system": "HL-60(TB) leukemia"}, "A549 NSCLC": {"system": "A549 NSCLC"}, "A498 renal": {"system": "A498 renal"}, "UACC-257 melanoma": {"system": "UACC-257 melanoma"}, "MDA-N": {"system": "MDA-N"}, "MDA-MB-231 breast": {"system": "MDA-MB-231 breast"}, "NCI/ADR-RES ovarian": {"system": "NCI/ADR-RES ovarian"}, "MOLT-4 leukemia": {"system": "MOLT-4 leukemia"}, "OVCAR-3 ovarian": {"system": "OVCAR-3 ovarian"}, "MALME-3M melanoma": {"system": "MALME-3M melanoma"}, "U251 CNS": {"system": "U251 CNS"}, "SNB-75 CNS": {"system": "SNB-75 CNS"}, "SK-MEL-5 melanoma": {"system": "SK-MEL-5 melanoma"}, "CCRF-CEM leukemia": {"system": "CCRF-CEM leukemia"}, "M14 melanoma": {"system": "M14 melanoma"}, "LOX IMVI melanoma": {"system": "LOX IMVI melanoma"}, "HT29 colon": {"system": "HT29 colon"}, "MCF7 breast": {"system": "MCF7 breast"}, "MDA-MB-435": {"system": "MDA-MB-435"}, "EKVX NSCLC": {"system": "EKVX NSCLC"}, "T-47D breast": {"system": "T-47D breast"}, "NCI-H460 lung": {"system": "NCI-H460 lung"}, "UACC-62 melanoma": {"system": "UACC-62 melanoma"}, "SK-MEL-2 melanoma": {"system": "SK-MEL-2 melanoma"}, "NCI-H226 lung": {"system": "NCI-H226 lung"}, "HOP-92 NSCLC": {"system": "HOP-92 NSCLC"}, "SK-MEL-28 melanoma": {"system": "SK-MEL-28 melanoma"}, "KM12 colon": {"system": "KM12 colon"}, "RPMI-8226 leukemia": {"system": "RPMI-8226 leukemia"}, "HCC-2998 colon": {"system": "HCC-2998 colon"}, "HCT-116 colon": {"system": "HCT-116 colon"}, "SNB-19 CNS": {"system": "SNB-19 CNS"}, "K-562 leukemia": {"system": "K-562 leukemia"}, "SN12C renal": {"system": "SN12C renal"}, "OVCAR-8 ovarian": {"system": "OVCAR-8 ovarian"}, "SF-295 CNS": {"system": "SF-295 CNS"}, "OVCAR-4 ovarian": {"system": "OVCAR-4 ovarian"}, "SF-268 CNS": {"system": "SF-268 CNS"}, "SF-539 CNS": {"system": "SF-539 CNS"}, "NCI-H23 lung": {"system": "NCI-H23 lung"}, "BT-549 breast": {"system": "BT-549 breast"}}, "note": "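Growth conditions: 96-well plates. Treatment: test compound, 48 hours, 5 concentrations. Analysis: linear interpolation between bracketing concentrations; unreached endpoints set to highest concentration. TGI is the concentration that stops growth completely.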"}
{"smiles": "Cc1cc(S(=O)(=O)n2ccnc2Oc2cccc(Cl)c2)c(SSc2cc(Cl)c(C)cc2S(=O)(=O)n2ccnc2Oc2cccc(Cl)c2)cc1Cl", "values": [{"measurement": "TGI", "setting": "PC-3 prostate", "result": "> 78.5", "unit": "µM"}, {"measurement": "TGI", "setting": "HCT-15 colon", "result": "> 100", "unit": "µM"}, {"measurement": "TGI", "setting": "SW-620 colon", "result": "> 100", "unit": "µM"}, {"measurement": "TGI", "setting": "DU-145 prostate", "result": "> 78.7", "unit": "µM"}, {"measurement": "TGI", "setting": "HOP-62 NSCLC", "result": 38.7, "unit": "µM"}, {"measurement": "TGI", "setting": "TK-10 renal", "result": "> 100", "unit": "µM"}, {"measurement": "TGI", "setting": "UO-31 renal", "result": "> 100", "unit": "µM"}, {"measurement": "TGI", "setting": "OVCAR-5 ovarian", "result": "> 100", "unit": "µM"}, {"measurement": "TGI", "setting": "IGROV1 ovarian", "result": "> 100", "unit": "µM"}, {"measurement": "TGI", "setting": "RXF 393 renal", "result": 24.2, "unit": "µM"}, {"measurement": "TGI", "setting": "CAKI-1 renal", "result": "> 43.5", "unit": "µM"}, {"measurement": "TGI", "setting": "ACHN renal", "result": "> 32", "unit": "µM"}, {"measurement": "TGI", "setting": "SR leukemia", "result": "> 100", "unit": "µM"}, {"measurement": "TGI", "setting": "SK-OV-3 ovarian", "result": "> 92.5", "unit": "µM"}, {"measurement": "TGI", "setting": "HS 578T breast", "result": 21.2, "unit": "µM"}, {"measurement": "TGI", "setting": "786-0 renal", "result": "> 70", "unit": "µM"}, {"measurement": "TGI", "setting": "HL-60(TB) leukemia", "result": 20.9, "unit": "µM"}, {"measurement": "TGI", "setting": "A549 NSCLC", "result": "> 100", "unit": "µM"}, {"measurement": "TGI", "setting": "A498 renal", "result": 84.5, "unit": "µM"}, {"measurement": "TGI", "setting": "UACC-257 melanoma", "result": "> 100", "unit": "µM"}, {"measurement": "TGI", "setting": "MDA-N", "result": "> 58.3", "unit": "µM"}, {"measurement": "TGI", "setting": "MDA-MB-231 breast", "result": "> 51.3", "unit": "µM"}, {"measurement": "TGI", "setting": "NCI/ADR-RES ovarian", "result": 21.8, "unit": "µM"}, {"measurement": "TGI", "setting": "MOLT-4 leukemia", "result": 35, "unit": "µM"}, {"measurement": "TGI", "setting": "OVCAR-3 ovarian", "result": "> 100", "unit": "µM"}, {"measurement": "TGI", "setting": "MALME-3M melanoma", "result": 41.1, "unit": "µM"}, {"measurement": "TGI", "setting": "U251 CNS", "result": 12.4, "unit": "µM"}, {"measurement": "TGI", "setting": "SNB-75 CNS", "result": "> 91.1", "unit": "µM"}, {"measurement": "TGI", "setting": "SK-MEL-5 melanoma", "result": 23, "unit": "µM"}, {"measurement": "TGI", "setting": "CCRF-CEM leukemia", "result": 10.7, "unit": "µM"}, {"measurement": "TGI", "setting": "M14 melanoma", "result": "> 42", "unit": "µM"}, {"measurement": "TGI", "setting": "LOX IMVI melanoma", "result": "> 100", "unit": "µM"}, {"measurement": "TGI", "setting": "HT29 colon", "result": 48.5, "unit": "µM"}, {"measurement": "TGI", "setting": "MCF7 breast", "result": "> 29.3", "unit": "µM"}, {"measurement": "TGI", "setting": "MDA-MB-435", "result": 48.3, "unit": "µM"}, {"measurement": "TGI", "setting": "EKVX NSCLC", "result": "> 100", "unit": "µM"}, {"measurement": "TGI", "setting": "T-47D breast", "result": "> 67.2", "unit": "µM"}, {"measurement": "TGI", "setting": "NCI-H460 lung", "result": "> 71.1", "unit": "µM"}, {"measurement": "TGI", "setting": "UACC-62 melanoma", "result": "> 53.2", "unit": "µM"}, {"measurement": "TGI", "setting": "SK-MEL-2 melanoma", "result": 26.9, "unit": "µM"}, {"measurement": "TGI", "setting": "NCI-H226 lung", "result": 30.7, "unit": "µM"}, {"measurement": "TGI", "setting": "HOP-92 NSCLC", "result": "> 100", "unit": "µM"}, {"measurement": "TGI", "setting": "SK-MEL-28 melanoma", "result": "> 100", "unit": "µM"}, {"measurement": "TGI", "setting": "KM12 colon", "result": "> 100", "unit": "µM"}, {"measurement": "TGI", "setting": "RPMI-8226 leukemia", "result": "> 38.7", "unit": "µM"}, {"measurement": "TGI", "setting": "HCC-2998 colon", "result": 53, "unit": "µM"}, {"measurement": "TGI", "setting": "HCT-116 colon", "result": "> 60.7", "unit": "µM"}, {"measurement": "TGI", "setting": "SNB-19 CNS", "result": "> 100", "unit": "µM"}, {"measurement": "TGI", "setting": "K-562 leukemia", "result": "> 100", "unit": "µM"}, {"measurement": "TGI", "setting": "SN12C renal", "result": "> 100", "unit": "µM"}, {"measurement": "TGI", "setting": "OVCAR-8 ovarian", "result": "> 41.8", "unit": "µM"}, {"measurement": "TGI", "setting": "SF-295 CNS", "result": "> 46.9", "unit": "µM"}, {"measurement": "TGI", "setting": "OVCAR-4 ovarian", "result": "> 100", "unit": "µM"}, {"measurement": "TGI", "setting": "SF-268 CNS", "result": "> 100", "unit": "µM"}, {"measurement": "TGI", "setting": "SF-539 CNS", "result": 37, "unit": "µM"}, {"measurement": "TGI", "setting": "NCI-H23 lung", "result": "> 100", "unit": "µM"}, {"measurement": "TGI", "setting": "BT-549 breast", "result": 43, "unit": "µM"}]}
